Numbers after ± are expanded uncertainties.
Test: mn = molality of the nth substance listed, in mol/kg
Details: 100 kPa, Liquid; for viscosity: Capillary tube (Ostwald / Ubbelohde) method; for mass density: Vibrating tube method

OC[C@@H](O)[C@@H](O)[C@H](O)[C@H](O)CO [mannitol] + O
Details	mass density, m1 = 0.2003 [kg/m3]	mass density, m1 = 0.4001 [kg/m3]	mass density, m1 = 0.5999 [kg/m3]	mass density, m1 = 0.7997 [kg/m3]	mass density, m1 = 1 [kg/m3]	viscosity, m1 = 0.2003 [mPa·s]	viscosity, m1 = 0.4001 [mPa·s]	viscosity, m1 = 0.5999 [mPa·s]	viscosity, m1 = 0.7997 [mPa·s]	viscosity, m1 = 1 [mPa·s]
293.15 K	1010.6 ± 0.18	1022.32 ± 0.18	1033.48 ± 0.18	1044.08 ± 0.19	1054.22 ± 0.19	1.106 ± 0.023	1.219 ± 0.026	1.345 ± 0.028	1.486 ± 0.031	1.634 ± 0.034
303.15 K	1007.89 ± 0.17	1019.47 ± 0.18	1030.47 ± 0.18	1040.9 ± 0.18	1050.86 ± 0.19	0.875 ± 0.018	0.957 ± 0.02	1.048 ± 0.022	1.151 ± 0.024	1.256 ± 0.026
313.15 K	1004.33 ± 0.17	1015.78 ± 0.18	1026.64 ± 0.18	1036.96 ± 0.18	1046.81 ± 0.19	0.713 ± 0.015	0.774 ± 0.016	0.842 ± 0.018	0.918 ± 0.019	0.996 ± 0.021
323.15 K	1000.02 ± 0.17	1011.34 ± 0.18	1022.08 ± 0.18	1032.29 ± 0.18	1042.03 ± 0.18	0.592 ± 0.012	0.64 ± 0.013	0.693 ± 0.015	0.751 ± 0.016	0.811 ± 0.017

O=C1O[C@H]([C@@H](O)CO)C(O)=C1O [L-ascorbic acid] + O
Details	mass density, 293.15 K [kg/m3]	mass density, 303.15 K [kg/m3]	mass density, 313.15 K [kg/m3]	mass density, 323.15 K [kg/m3]	viscosity, 293.15 K [mPa·s]	viscosity, 303.15 K [mPa·s]	viscosity, 313.15 K [mPa·s]	viscosity, 323.15 K [mPa·s]
m1 = 0.1	1005.25 ± 0.16	1002.56 ± 0.16	999.06 ± 0.16	994.78 ± 0.16	1.042 ± 0.022	0.828 ± 0.017	0.677 ± 0.014	0.565 ± 0.012
m1 = 0.2	1012.12 ± 0.17	1009.33 ± 0.17	1005.69 ± 0.16	1001.31 ± 0.16	1.09 ± 0.023	0.858 ± 0.018	0.699 ± 0.015	0.584 ± 0.012
m1 = 0.2002	1012.12 ± 0.18	1009.33 ± 0.18	1005.69 ± 0.17	1001.31 ± 0.17	1.09 ± 0.023	0.858 ± 0.018	0.699 ± 0.015	0.584 ± 0.012
m1 = 0.3	1018.82 ± 0.17	1015.91 ± 0.17	1012.2 ± 0.17	1007.78 ± 0.17	1.128 ± 0.024	0.894 ± 0.019	0.724 ± 0.015	0.603 ± 0.013
m1 = 0.3141	1018.82 ± 0.18	1015.91 ± 0.18	1012.2 ± 0.18	1007.78 ± 0.17	1.128 ± 0.024	0.894 ± 0.019	0.724 ± 0.015	0.603 ± 0.013
m1 = 0.4	1025.4 ± 0.17	1022.39 ± 0.17	1018.62 ± 0.17	1014.08 ± 0.17	1.167 ± 0.024	0.922 ± 0.019	0.751 ± 0.016	0.623 ± 0.013

OC[C@@H](O)[C@@H](O)CO [meso-1,2,3,4-butanetetrol] + O
Details	mass density, m1 = 0.2002 [kg/m3]	mass density, m1 = 0.4001 [kg/m3]	mass density, m1 = 0.6001 [kg/m3]	mass density, m1 = 0.7984 [kg/m3]	mass density, m1 = 0.9998 [kg/m3]	viscosity, m1 = 0.2002 [mPa·s]	viscosity, m1 = 0.4001 [mPa·s]	viscosity, m1 = 0.6001 [mPa·s]	viscosity, m1 = 0.7984 [mPa·s]	viscosity, m1 = 0.9998 [mPa·s]
293.15 K	1005.26 ± 0.16	1012.03 ± 0.17	1018.54 ± 0.17	1024.74 ± 0.17	1030.79 ± 0.17	1.069 ± 0.022	1.134 ± 0.024	1.204 ± 0.025	1.278 ± 0.027	1.358 ± 0.028
303.15 K	1002.58 ± 0.16	1009.24 ± 0.17	1015.65 ± 0.17	1021.76 ± 0.17	1027.73 ± 0.17	0.849 ± 0.018	0.895 ± 0.019	0.947 ± 0.02	1.001 ± 0.021	1.058 ± 0.022
313.15 K	999.05 ± 0.16	1005.61 ± 0.16	1011.9 ± 0.17	1017.92 ± 0.17	1023.81 ± 0.17	0.69 ± 0.014	0.727 ± 0.015	0.766 ± 0.016	0.806 ± 0.017	0.849 ± 0.018
323.15 K	994.8 ± 0.16	1001.29 ± 0.16	1007.55 ± 0.17	1013.53 ± 0.17	1019.39 ± 0.17	0.576 ± 0.012	0.604 ± 0.013	0.634 ± 0.013	0.665 ± 0.014	0.698 ± 0.015

OC[C@@H](O)[C@H](O)[C@@H](O)CO [xylitol] + O
Details	mass density, m1 = 0.2002 [kg/m3]	mass density, m1 = 0.4 [kg/m3]	mass density, m1 = 0.5996 [kg/m3]	mass density, m1 = 0.7997 [kg/m3]	mass density, m1 = 1 [kg/m3]	viscosity, m1 = 0.2002 [mPa·s]	viscosity, m1 = 0.4 [mPa·s]	viscosity, m1 = 0.5996 [mPa·s]	viscosity, m1 = 0.7997 [mPa·s]	viscosity, m1 = 1 [mPa·s]
293.15 K	1008.14 ± 0.17	1017.61 ± 0.18	1026.67 ± 0.18	1035.36 ± 0.18	1043.71 ± 0.19	1.081 ± 0.023	1.168 ± 0.024	1.249 ± 0.026	1.343 ± 0.028	1.449 ± 0.03
303.15 K	1005.4 ± 0.17	1014.72 ± 0.18	1023.62 ± 0.18	1032.15 ± 0.18	1040.36 ± 0.18	0.858 ± 0.018	0.917 ± 0.019	0.981 ± 0.021	1.056 ± 0.022	1.125 ± 0.024
313.15 K	1001.83 ± 0.17	1010.99 ± 0.18	1019.76 ± 0.18	1028.15 ± 0.18	1036.24 ± 0.18	0.699 ± 0.015	0.743 ± 0.016	0.792 ± 0.017	0.845 ± 0.018	0.901 ± 0.019
323.15 K	997.51 ± 0.17	1006.53 ± 0.17	1015.16 ± 0.18	1023.43 ± 0.18	1031.37 ± 0.18	0.582 ± 0.012	0.617 ± 0.013	0.655 ± 0.014	0.695 ± 0.015	0.739 ± 0.016

Source: the NIST ThermoML archive (doi:10.1021/je400395u)
